According to article PMC5618194, “Orally Delivered Scorpion Antimicrobial Peptides Exhibit Activity against Pea Aphid (Acyrthosiphon pisum) and Its Bacterial Symbionts” (Toxins, 2017):
Converted amounts (≈) assume the structure as drawn. Read-outs that look alike come from different tables or passages of the source. No end group written: not given here.

Assays:
S. symbiotica CWBI-2.3 = assay: microbe, parasite or virus in culture; type: cell-based, Serratia symbiotica; conditions: broth microdilution (CLSI), 96-well polypropylene plates, 535 medium (Tripticase soy broth), 5 × 10^5 CFU/mL, 18 h, absorbance at 600 nm, two-fold dilutions 500 to 4 µg/mL, lowest concentration causing complete growth inhibition
Experimental: S. symbiotica strain CWBI-2.3, the only aphid symbiotic bacterium that can be cultivated in the laboratory, was purchased from the Leibniz Institute DSMZ (Braunschweig, Germany) and cultivated as recommended by the supplier. MICs were determined according to the CLSI guidelines using a broth microdilution assay in 96-well polypropylene microtiter plates. The bacteria were cultivated overnight at 28 °C using 535 medium (Tripticase soy broth) and diluted to 5 × 10^5 CFU/mL in broth. The AMPs were dissolved in water to a concentration of 4 mg/mL and a series of two-fold dilutions was prepared in 535 broths, ranging from 500 to 4 µg/mL. S. symbiotica CWBI-2.3 in an unmodified medium was used as a positive control, and blanks were prepared with medium only or with medium and water (the latter to exclude any possible negative effect of water on the bacteria). The bacteria were incubated for 18 h and the absorbance at 600 nm was recorded every 20 min. The MICs were defined as the lowest concentrations of AMP causing complete bacterial growth inhibition.

B. aphidicola [1] = assay: qPCR relative quantification of symbiont in treated aphids; type: in vivo, Buchnera aphidicola in Acyrthosiphon pisum; conditions: 50 µg/mL
Experimental: (§1) The density of the B. aphidicola and S. symbiotica populations in vivo was determined by qPCR. Genomic DNA was extracted from pools of five aphids, as previously described. Three biological replicates were prepared per treatment. Amplifications were carried out using a StepOnePlus™ Real-Time PCR System (Applied Biosystems, Waltham, MA, USA). The reaction volume was 10 μL, comprising 2 μL of template DNA (25 ng/μL), 10 μM of each specific primer and 5 μL of SYBR Green PCR Master Mix (Applied Biosystems). Each reaction was heated to 95 °C for 10 min, followed by 40 cycles of 95 °C for 15 s and 60 °C for 60 s. Melting curve analysis was performed by increasing the temperature from 60 °C to 95 °C for 15 s, cooling to 60 °C for 60 s and heating to 95 °C for 15 s. […] Relative abundance values for each symbiont were calculated by comparing the threshold cycle (Ct) of each target gene to that of the aphid ribosomal protein L32 gene and efficiencies were calculated using LinReg PCR software.
(§2) All data were analysed using SPSS v17.0 software (SPSS Inc., Chicago, IL, USA) and statistical significance was defined as p < 0.05. […] The total number of offspring, time to reproduction, and relative numbers of bacterial symbionts were analysed using the Wilcoxon ranked sum test for non-parametric data and a paired t-test for parametric data.

A. pisum [2] = assay: Aphid reproduction after AMP feeding (time to reproduction, number of offspring); type: in vivo, Acyrthosiphon pisum; conditions: 50 µg/mL for three days; surviving aphids followed two weeks
Experimental: The effect of each AMP on A. pisum reproduction was determined by counting the number of offspring and recording the delay before reproduction in surviving aphids for two weeks after treatment (Figure 2).
A. pisum nymphs (48 h old) were fed for three days on an artificial AP3 diet in modified chambers. The AP3 diet was mixed with the corresponding AMP or control treatment. Ten nymphs were placed in each chamber and five replicates were included per treatment. AMPs were tested at three different concentrations: 50, 250, and 500 µg/mL. Untreated aphids were fed on the control AP3 diet. Positive control treatments comprised aphids fed on the AP3 diet supplemented with the insecticide imidacloprid (5 µg/mL) or the antibiotic rifampicin (50 µg/mL) (Sigma-Aldrich, Taufkirchen, Germany). Imidacloprid is strongly hydrophobic, and was therefore prepared first as a highly concentrated stock (1000 µg/mL) in acetone and working solutions were diluted in the AP3 diet. […] Mortality was scored after 24, 48, and 72 h of feeding. […]
as §2

S. symbiotica [3] = assay: qPCR relative quantification of symbiont in treated aphids; type: in vivo, Serratia symbiotica in Acyrthosiphon pisum; conditions: 50 µg/mL
Experimental: as §1, §2

S. symbiotica [4] = assay: FISH localization of symbiont in treated aphid nymphs; type: in vivo, Serratia symbiotica in Acyrthosiphon pisum
Experimental: (§3) FISH was carried out as previously described, with slight modifications. Treated A. pisum nymphs were fixed for three days in Carnoy’s solution (6:3:1 […]:glacial acetic acid) and then bleached in 6% H2O2 in 96% ethanol for 1 week. After bleaching, samples were washed in 100% ethanol and then hybridized overnight in hybridization buffer (20 mM Tris-HCl pH 8.0, 0.9 M NaCl, 0.01% sodium dodecylsulfate, 30% formamide) containing 100 nM of each fluorescent probe and 500 nM DAPI. After hybridization, samples were rinsed three times with phosphate buffered saline containing 0.3% Triton X-100 and viewed under a Leica TCS SP8 confocal microscope (Leica Microsystems, Wetzlar, Germany). We analysed a minimum of 20 samples from each treatment. The specificity of detection was confirmed using controls with no probe and specimens were pre-treated with RNase.

A. pisum [5] = type: in vivo, Acyrthosiphon pisum; conditions: for % Survival: after three days of feeding, 48 h old nymphs, ten per chamber, five replicates, control AP3 diet survival = 90%; for Kaplan-Meier analysis: Mean, Estimate (survival time): three days of feeding, control 2.880, estimation limited to the largest survival time if censored
Experimental: A. pisum nymphs (48 h old) were fed for three days on an artificial AP3 diet in modified chambers. The AP3 diet was mixed with the corresponding AMP or control treatment. Ten nymphs were placed in each chamber and five replicates were included per treatment. AMPs were tested at three different concentrations: 50, 250, and 500 µg/mL. Untreated aphids were fed on the control AP3 diet. Positive control treatments comprised aphids fed on the AP3 diet supplemented with the insecticide imidacloprid (5 µg/mL) or the antibiotic rifampicin (50 µg/mL) (Sigma-Aldrich, Taufkirchen, Germany). Imidacloprid is strongly hydrophobic, and was therefore prepared first as a highly concentrated stock (1000 µg/mL) in acetone and working solutions were diluted in the AP3 diet. The corresponding control (AP3 + acetone) was tested on the aphids, and survival was not affected when compared to AP3 diet alone or AP3 diet diluted with water (data not shown). Mortality was scored after 24, 48, and 72 h of feeding. Aphids that survived the three-day treatment were transferred to agar plates containing bean plant leaves and reared for another two weeks in order to determine the impact of the diets on survival and reproduction.
All data were analysed using SPSS v17.0 software (SPSS Inc., Chicago, IL, USA) and statistical significance was defined as p < 0.05. For mortality assessment, we used non-parametric survival analysis (Kaplan-Meier) and multiple pairwise comparisons among different groups were carried out using log-rank tests to assess efficiency. The total number of offspring, time to reproduction, and relative numbers of bacterial symbionts were analysed using the Wilcoxon ranked sum test for non-parametric data and a paired t-test for parametric data.

B. aphidicola [6] = assay: FISH localization of symbiont in treated aphid nymphs; type: in vivo, Buchnera aphidicola in Acyrthosiphon pisum; conditions: highest concentration of each AMP, control treatments
Experimental: as §3

[7] = tested on: green peach aphid Myzus persicae (Sulzer); design: method as in doi:10.1111/j.1439-0418.2006.01117.x; conditions: cited from earlier work
Escherichia coli = conditions: cited from earlier work
[8] = after three days of treatment, compared to control AP3 diet, pools of five aphids, three biological replicates
[9] = two weeks after treatment, data not shown

For ILSAIWSGIKGLL-NH2 [Uy17], which “MIC (In Vitro)” value (S. symbiotica CWBI-2.3) is on record?
Its value is 250 µg/mL.

With GFWGKLLEGVKKAI-NH2 [D5] as the molecule, how does the “MIC (In Vitro)” value (S. symbiotica CWBI-2.3) read?
Its value is 500 µg/mL.

For FPFLLSLIPSAISAIKRL-NH2 [Uy234], which “MIC (In Vitro)” value (S. symbiotica CWBI-2.3) is on record?
Its value is >500 µg/mL.

With GFWGKLWEGVKNAI-NH2 [UyCT1] as the molecule, how does the “MIC (In Vitro)” value (S. symbiotica CWBI-2.3) read?
Its value is 125 µg/mL.

For ILSAIWSGIKSLF-NH2 [UyCT3], which “MIC (In Vitro)” value (S. symbiotica CWBI-2.3) is on record?
The value was 125 µg/mL.

Which “density of B. aphidicola (qPCR, relative abundance)” value (B. aphidicola [1]; [8]) does the source give for CO[C@H]1/C=C/O[C@@]2(C)Oc3c(C)c(O)c4c(O)c(c(/C=N/N5CCN(C)CC5)c(O)c4c3C2=O)NC(=O)/C(C)=C\C=C\[C@H](C)[C@H](O)[C@@H](C)[C@@H](O)[C@@H](C)[C@H](OC(C)=O)[C@@H]1C [Rifampicin] here?
The value was “significant reduction”.

And the “density of B. aphidicola (qPCR)” value (B. aphidicola [1]; [9])?
The value was “significant reduction”.

What about the number of offspring (A. pisum [2]) of the same molecule?
Its number of offspring is “hardly any offspring”.

What about the MIC (S. symbiotica CWBI-2.3; Serratia symbiotica, CWBI2.3, read-out: MIC (In Vitro)) of the same molecule?
Its MIC is 50 µg/mL (≈ 60.8 µM).

And the “density of S. symbiotica (qPCR, relative abundance)” value (S. symbiotica [3]; [8])?
The value was “significant reduction”.

What about the “density of S. symbiotica (qPCR)” value (S. symbiotica [3]; [9]) of the same molecule?
Its value is “significant reduction”.

What about the “S. symbiotica FISH signal” value (S. symbiotica [4]; 48 h after exposure, highest concentration of each AMP, control treatments, minimum of 20 samples per treatment) of the same molecule?
Its value is “reduced the S. symbiotica signal”.

What about the “survival during the two weeks after treatment” value (A. pisum [5]; 50 µg/mL for three days, survivors monitored for the following two weeks on bean leaves, data not shown) of the same molecule?
The value was “did not affect aphid survival”.

What about the “% Survival” value (A. pisum [5]; 50 µg/mL in AP3 diet) of the same molecule?
Its value is 92.5%.

And the “Kaplan-Meier analysis: Mean, Estimate (survival time)” value (A. pisum [5]; 50 µg/mL)?
Its value is 2.925.

What about the “intensity of the B. aphidicola FISH signal” value (B. aphidicola [6]; aphid nymphs, 24 and 48 h after exposure) of the same molecule?
The value was “neither the AMPs nor rifampicin reduced the intensity of the signal”.

Which “MIC (In Vitro)” value (S. symbiotica CWBI-2.3) does the source give for FLSTIWNGIKGLL-NH2 [Uy192] here?
Its value is 500 µg/mL.

With FFSALLSGIKSLF-NH2 [Um4] as the molecule, how does the “MIC (In Vitro)” value (S. symbiotica CWBI-2.3) read?
Its value is >500 µg/mL.

Which “MIC (In Vitro)” value (S. symbiotica CWBI-2.3) does the source give for LWGKLWEGVKSLI-NH2 [D3] here?
The value was 250 µg/mL.

What does the source list for “indolicidin: an AMP from bovine neutrophils (ILPWKWPWWPWRR; ends and bridges not checked; UniProt P33046 131-143, looked up)”?
activity against Myzus persicae [7]: showed activity; activity against Escherichia coli (Escherichia coli): showed activity

With GFWGKLWEGVKNAIKKK-NH2 [D11] as the molecule, how does the “MIC (In Vitro)” value (S. symbiotica CWBI-2.3) read?
Its value is >500 µg/mL.

For FPFLKLSLKIPKSAIKSAIKRL-NH2 [D10], which “MIC (In Vitro)” value (S. symbiotica CWBI-2.3) is on record?
Its value is >500 µg/mL.

For “RGFRKHFNKLVKKVKHTISETAHVAKDTAVIAGSGAAVVAAT-NH2 [Stomoxyn]”, which “MIC (In Vitro)” value (S. symbiotica CWBI-2.3) is on record?
The value was >500 µg/mL.

Which “localization of the S. symbiotica FISH signal” value (S. symbiotica [4]; 24 and 48 h after exposure, control treatment) does the source give for O=[N+]([O-])NC1=NCCN1Cc1ccc(Cl)nc1 [Imidacloprid] here?
The value was “did not affect the localization of the bacterial symbionts”.

What about the “% Survival” value (A. pisum [5]; 5 µg/mL in AP3 diet) of the same molecule?
The value was 0%.

What about the “Kaplan-Meier analysis: Mean, Estimate (survival time)” value (A. pisum [5]; 5 µg/mL) of the same molecule?
Its value is 1.960.

And the “localization of the B. aphidicola FISH signal” value (B. aphidicola [6]; 48 h after treatment)?
Its value is “did not affect the localization of the bacterial symbionts”.

With IWSAIWSGIKGLL-NH2 [UyCT5] as the molecule, how does the “MIC (In Vitro)” value (S. symbiotica CWBI-2.3) read?
Its value is 125 µg/mL.

And the “nymphs killed after the first day” value (A. pisum [5]; in vivo, 48 h, 500 µg/mL)?
The value was 10%.

With GNRPVYIPPPRPPHPRL-NH2 [Apidaecin] as the molecule, how does the “MIC (In Vitro)” value (S. symbiotica CWBI-2.3) read?
Its value is >500 µg/mL.
